In ChEMBL document CHEMBL4229407, “Optimization and in vivo evaluation of pyrazolopyridines as a potent and selective PI3Kδ inhibitor” (Bioorg Med Chem, 2018):

Key:
Homo sapiens [1] = species on record: Homo sapiens; assay: Selectivity ratio of IC50 for recombinant human full length N-terminal His6-tagged PI3K p110alpha/p85alpha expressed in baculovirus infected Sf21 cells to IC50 for recombinant human full length N-terminal His6-tagged PI3K p110delta/p85alpha expressed in baculovirus infected Sf21 cells
[2] = target: PI3-kinase p110-delta/p85-alpha (Homo sapiens, UniProt O00329); assay: Inhibition of recombinant human full length N-terminal His6-tagged PI3K p110delta/p85alpha expressed in baculovirus infected Sf21 cells using PIP2 as substrate after 35 to 40 mins by HTRF assay
Chain of PI3-kinase p110-delta/p85-alpha (P27986 whole entry): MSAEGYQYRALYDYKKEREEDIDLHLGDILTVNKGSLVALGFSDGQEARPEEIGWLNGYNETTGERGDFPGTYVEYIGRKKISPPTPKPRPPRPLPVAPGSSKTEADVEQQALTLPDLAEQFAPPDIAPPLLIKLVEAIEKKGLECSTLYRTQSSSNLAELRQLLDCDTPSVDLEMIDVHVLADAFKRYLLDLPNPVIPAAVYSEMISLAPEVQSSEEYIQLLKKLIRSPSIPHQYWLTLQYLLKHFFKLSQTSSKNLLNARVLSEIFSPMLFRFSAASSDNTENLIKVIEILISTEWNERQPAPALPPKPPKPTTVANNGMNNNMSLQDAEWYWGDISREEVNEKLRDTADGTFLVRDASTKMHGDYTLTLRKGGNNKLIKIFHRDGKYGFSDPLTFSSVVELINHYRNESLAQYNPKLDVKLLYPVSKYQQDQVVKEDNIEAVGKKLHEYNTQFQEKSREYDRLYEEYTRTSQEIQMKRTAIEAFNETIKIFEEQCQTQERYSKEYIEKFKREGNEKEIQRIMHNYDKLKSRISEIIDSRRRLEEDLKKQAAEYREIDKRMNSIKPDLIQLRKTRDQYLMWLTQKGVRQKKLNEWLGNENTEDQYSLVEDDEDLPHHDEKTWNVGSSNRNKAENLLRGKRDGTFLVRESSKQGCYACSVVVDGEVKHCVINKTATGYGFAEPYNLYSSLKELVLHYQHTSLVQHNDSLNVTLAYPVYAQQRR
Chain of PI3-kinase p110-delta/p85-alpha (O00329 whole entry): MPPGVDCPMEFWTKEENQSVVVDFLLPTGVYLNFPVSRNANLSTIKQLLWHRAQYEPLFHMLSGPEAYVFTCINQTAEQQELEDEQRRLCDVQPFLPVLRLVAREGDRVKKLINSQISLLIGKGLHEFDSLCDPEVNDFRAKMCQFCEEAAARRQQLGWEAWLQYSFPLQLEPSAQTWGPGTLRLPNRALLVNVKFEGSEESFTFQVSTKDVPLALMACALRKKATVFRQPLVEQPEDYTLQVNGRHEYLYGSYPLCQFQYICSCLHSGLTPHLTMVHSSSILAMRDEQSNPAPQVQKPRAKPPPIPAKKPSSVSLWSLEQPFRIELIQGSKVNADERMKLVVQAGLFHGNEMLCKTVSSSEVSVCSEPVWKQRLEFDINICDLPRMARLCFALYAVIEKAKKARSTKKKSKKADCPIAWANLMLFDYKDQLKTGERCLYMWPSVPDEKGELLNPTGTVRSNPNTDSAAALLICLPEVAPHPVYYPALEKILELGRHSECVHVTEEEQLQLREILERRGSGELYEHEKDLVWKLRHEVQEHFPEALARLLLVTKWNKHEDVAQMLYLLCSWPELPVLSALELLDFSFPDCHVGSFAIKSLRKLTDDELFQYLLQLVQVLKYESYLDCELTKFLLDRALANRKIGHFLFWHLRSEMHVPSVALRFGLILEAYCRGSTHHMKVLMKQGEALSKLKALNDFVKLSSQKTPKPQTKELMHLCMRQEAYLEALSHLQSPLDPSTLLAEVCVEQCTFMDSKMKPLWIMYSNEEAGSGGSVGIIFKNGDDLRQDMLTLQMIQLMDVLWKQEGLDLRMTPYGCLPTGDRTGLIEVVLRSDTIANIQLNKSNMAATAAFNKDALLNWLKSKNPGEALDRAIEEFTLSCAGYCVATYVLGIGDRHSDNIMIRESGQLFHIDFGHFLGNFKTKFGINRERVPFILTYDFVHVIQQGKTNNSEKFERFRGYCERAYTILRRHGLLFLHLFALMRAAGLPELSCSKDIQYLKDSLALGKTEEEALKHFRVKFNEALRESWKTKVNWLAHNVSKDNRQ

Homo sapiens [3] = species on record: Homo sapiens; assay: Selectivity ratio of IC50 for recombinant human full length N-terminal His6-tagged PI3K p110beta/p85alpha expressed in baculovirus infected Sf21 cells to IC50 for recombinant human full length N-terminal His6-tagged PI3K p110delta/p85alpha expressed in baculovirus infected Sf21 cells
Homo sapiens [4] = species on record: Homo sapiens; assay: Selectivity ratio of IC50 for recombinant human full length N-terminal His6-tagged PI3K p120gamma expressed in baculovirus infected Sf21 cells to IC50 for recombinant human full length N-terminal His6-tagged PI3K p110delta/p85alpha expressed in baculovirus infected Sf21 cells
[5] = Intrinsic clearance in CD-1 mouse liver microsomes at 0.2 uM up to 45 mins in presence of NADPH by LC-MS/MS analysis; format: ADME, microsome; conditions: read-out: CLH
Mus musculus [6] = assay: In vivo inhibition of PI3Kdelta in Balb/c mouse assessed as reduction in trinitrophenylated aminoethylcarboxymethyl-Ficoll-induced antibody production in plasma at 2 mg/kg, po administered twice daily measured on day 4 by ELISA relative to control; format: functional; conditions: 96 h
[7] = AUC (0 to 24 hrs) in Balb/c mouse at 1 mg/kg, iv or 3 mg/kg, po by LC-MS/MS analysis; format: ADME, organism-based; conditions: in vivo
[8] = Fraction unbound in mouse plasma at 2 uM after 6 hrs by LC-MS/MS based equilibrium dialysis method; format: ADME, cell-free
Mus musculus [9] = assay: In vivo inhibition of PI3Kdelta in Balb/c mouse assessed as reduction in trinitrophenylated aminoethylcarboxymethyl-Ficoll-induced antibody production in plasma administered orally twice daily measured on day 4 by ELISA; format: functional, organism-based
Cytochrome P450 2C9 = Cytochrome P450 2C9 (Homo sapiens, UniProt P11712); assay: Inhibition of CYP2C9 in human liver microsomes at 5 uM using diclofenac as substrate after 20 mins in presence of NADPH by LC-MS/MS analysis; format: ADME
Chain of Cytochrome P450 2C9 (P11712 whole entry): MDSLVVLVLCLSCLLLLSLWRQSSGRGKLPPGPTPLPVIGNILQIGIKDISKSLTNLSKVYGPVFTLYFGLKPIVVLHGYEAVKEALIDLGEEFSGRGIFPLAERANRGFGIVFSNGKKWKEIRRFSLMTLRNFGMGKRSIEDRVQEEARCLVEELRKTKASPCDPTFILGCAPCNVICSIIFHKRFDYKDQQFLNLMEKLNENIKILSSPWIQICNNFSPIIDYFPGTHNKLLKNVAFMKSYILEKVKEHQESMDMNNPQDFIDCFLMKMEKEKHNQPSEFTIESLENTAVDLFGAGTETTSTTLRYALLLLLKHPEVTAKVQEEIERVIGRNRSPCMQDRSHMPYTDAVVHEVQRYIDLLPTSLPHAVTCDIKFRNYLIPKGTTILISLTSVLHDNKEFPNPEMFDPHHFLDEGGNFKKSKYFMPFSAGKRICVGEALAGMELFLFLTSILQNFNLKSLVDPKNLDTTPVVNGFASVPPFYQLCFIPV

[10] = Oral bioavailability in Balb/c mouse at 3 mg/kg by LC-MS/MS analysis; format: ADME, organism-based; conditions: in vivo
Cytochrome P450 2D6 = Cytochrome P450 2D6 (Homo sapiens, UniProt P10635); assay: Inhibition of CYP2D6 in human liver microsomes at 5 uM using dextromethorphan as substrate after 20 mins in presence of NADPH by LC-MS/MS analysis; format: ADME
Chain of Cytochrome P450 2D6 (P10635 whole entry): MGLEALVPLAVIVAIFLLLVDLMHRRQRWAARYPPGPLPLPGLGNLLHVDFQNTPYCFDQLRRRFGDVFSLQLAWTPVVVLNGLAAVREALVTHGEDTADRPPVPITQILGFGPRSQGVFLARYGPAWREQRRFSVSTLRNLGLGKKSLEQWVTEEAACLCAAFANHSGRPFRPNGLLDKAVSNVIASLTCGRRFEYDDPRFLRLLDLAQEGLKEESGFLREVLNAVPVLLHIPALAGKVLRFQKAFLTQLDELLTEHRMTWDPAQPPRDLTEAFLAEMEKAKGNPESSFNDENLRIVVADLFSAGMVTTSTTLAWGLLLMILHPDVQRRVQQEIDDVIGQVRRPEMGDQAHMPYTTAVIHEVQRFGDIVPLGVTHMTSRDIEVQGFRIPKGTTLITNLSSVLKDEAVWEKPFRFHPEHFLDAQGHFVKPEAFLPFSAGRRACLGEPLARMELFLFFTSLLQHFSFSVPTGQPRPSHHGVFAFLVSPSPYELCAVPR

[11] = Volume of distribution at steady state in Balb/c mouse at 1 mg/kg, iv or 3 mg/kg, po by LC-MS/MS analysis; format: ADME, organism-based; conditions: in vivo, read-out: Vdss
[12] = Total clearance in Balb/c mouse at 1 mg/kg, iv or 3 mg/kg, po by LC-MS/MS analysis; format: ADME, organism-based; conditions: in vivo
Mus musculus [13] = assay: In vivo inhibition of PI3Kdelta in Balb/c mouse assessed as reduction in trinitrophenylated aminoethylcarboxymethyl-Ficoll-induced antibody production in plasma at 0.5 mg/kg, po administered twice daily measured on day 4 by ELISA relative to control; format: functional; conditions: 96 h
[14] = Cmax in Balb/c mouse at 1 mg/kg, iv or 3 mg/kg, po by LC-MS/MS analysis; format: ADME, organism-based; conditions: in vivo
[15] = Permeability of the compound at 50 uM after 2 hrs by HPLC based PAMPA; format: ADME; conditions: read-out: permeability
Mus musculus [16] = assay: In vivo inhibition of PI3Kdelta in Balb/c mouse assessed as reduction in trinitrophenylated aminoethylcarboxymethyl-Ficoll-induced antibody production in plasma at 1 mg/kg, po administered twice daily measured on day 4 by ELISA relative to control; format: functional; conditions: 96 h
[17] = Half life in Balb/c mouse at 1 mg/kg, iv or 3 mg/kg, po by LC-MS/MS analysis; format: ADME, organism-based; conditions: in vivo
Cytochrome P450 3A4 = Cytochrome P450 3A4 (Homo sapiens, UniProt P08684); assay: Inhibition of CYP3A4 in human liver microsomes at 5 uM using midazolam as substrate after 20 mins in presence of NADPH by LC-MS/MS analysis; format: ADME
Chain of Cytochrome P450 3A4 (P08684 whole entry): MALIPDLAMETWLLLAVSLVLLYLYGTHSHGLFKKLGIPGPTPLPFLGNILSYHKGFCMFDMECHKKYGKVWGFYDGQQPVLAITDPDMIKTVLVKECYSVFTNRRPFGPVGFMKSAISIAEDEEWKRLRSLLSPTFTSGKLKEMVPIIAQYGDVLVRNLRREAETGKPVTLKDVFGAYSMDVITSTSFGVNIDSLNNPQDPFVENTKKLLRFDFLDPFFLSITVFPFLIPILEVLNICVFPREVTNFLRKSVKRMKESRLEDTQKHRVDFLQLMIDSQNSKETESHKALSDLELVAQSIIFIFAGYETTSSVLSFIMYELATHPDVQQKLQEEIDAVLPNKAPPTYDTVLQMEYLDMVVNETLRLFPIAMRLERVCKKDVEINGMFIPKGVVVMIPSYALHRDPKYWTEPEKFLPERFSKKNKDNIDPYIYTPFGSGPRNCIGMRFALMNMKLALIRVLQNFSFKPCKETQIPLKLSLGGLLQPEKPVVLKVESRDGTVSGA

[18] = Aqueous solubility in pH 6.8 solution at 130 uM after 20 hrs by liquid chromatography method; format: physicochemical; conditions: aqueous pH 6.8 solution
Cytochrome P450 2C19 = Cytochrome P450 2C19 (Homo sapiens, UniProt P33261); assay: Inhibition of CYP2C19 in human liver microsomes at 5 uM using S-mephenytoin as substrate after 20 mins in presence of NADPH by LC-MS/MS analysis; format: ADME
Chain of Cytochrome P450 2C19 (P33261 whole entry): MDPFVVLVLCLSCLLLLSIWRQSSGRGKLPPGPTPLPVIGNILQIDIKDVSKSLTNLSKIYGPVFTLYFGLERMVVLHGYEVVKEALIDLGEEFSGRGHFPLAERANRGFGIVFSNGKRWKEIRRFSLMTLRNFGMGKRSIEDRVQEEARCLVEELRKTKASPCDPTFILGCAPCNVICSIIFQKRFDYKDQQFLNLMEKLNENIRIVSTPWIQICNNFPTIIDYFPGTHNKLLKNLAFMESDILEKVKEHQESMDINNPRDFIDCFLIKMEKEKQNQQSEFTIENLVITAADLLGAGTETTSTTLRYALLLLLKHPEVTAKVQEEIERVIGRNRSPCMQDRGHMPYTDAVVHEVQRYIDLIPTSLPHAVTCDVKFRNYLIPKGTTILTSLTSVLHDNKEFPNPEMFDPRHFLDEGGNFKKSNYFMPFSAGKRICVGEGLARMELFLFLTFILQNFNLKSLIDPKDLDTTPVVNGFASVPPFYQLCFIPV

Cytochrome P450 1A2 = target: T1, Cytochrome P450 1A2 (Homo sapiens, UniProt P05177); assay: Inhibition of CYP1A2 in human liver microsomes at 5 uM using phenacetin as substrate after 20 mins in presence of NADPH by LC-MS/MS analysis; format: ADME
T1 sequence (P05177 whole entry): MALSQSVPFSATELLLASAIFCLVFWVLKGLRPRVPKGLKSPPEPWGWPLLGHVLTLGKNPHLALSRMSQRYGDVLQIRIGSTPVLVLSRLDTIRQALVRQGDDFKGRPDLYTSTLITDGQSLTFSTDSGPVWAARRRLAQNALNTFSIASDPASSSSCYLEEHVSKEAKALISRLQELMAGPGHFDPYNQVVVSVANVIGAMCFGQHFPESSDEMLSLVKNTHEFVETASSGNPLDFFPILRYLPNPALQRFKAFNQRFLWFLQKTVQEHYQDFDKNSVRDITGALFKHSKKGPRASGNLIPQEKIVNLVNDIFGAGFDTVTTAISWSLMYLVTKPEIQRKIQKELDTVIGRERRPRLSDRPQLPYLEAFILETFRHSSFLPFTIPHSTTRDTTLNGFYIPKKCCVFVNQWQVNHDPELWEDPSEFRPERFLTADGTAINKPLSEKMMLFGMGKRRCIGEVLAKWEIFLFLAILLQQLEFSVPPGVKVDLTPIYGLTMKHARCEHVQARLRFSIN

[19] = Tmax in Balb/c mouse at 1 mg/kg, iv or 3 mg/kg, po by LC-MS/MS analysis; format: ADME, organism-based; conditions: in vivo
Cytochrome P450 2C8 = target: T2, Cytochrome P450 2C8 (Homo sapiens, UniProt P10632); assay: Inhibition of CYP2C8 in human liver microsomes at 5 uM using amodiaquine as substrate after 20 mins in presence of NADPH by LC-MS/MS analysis; format: ADME
T2 sequence (P10632 whole entry): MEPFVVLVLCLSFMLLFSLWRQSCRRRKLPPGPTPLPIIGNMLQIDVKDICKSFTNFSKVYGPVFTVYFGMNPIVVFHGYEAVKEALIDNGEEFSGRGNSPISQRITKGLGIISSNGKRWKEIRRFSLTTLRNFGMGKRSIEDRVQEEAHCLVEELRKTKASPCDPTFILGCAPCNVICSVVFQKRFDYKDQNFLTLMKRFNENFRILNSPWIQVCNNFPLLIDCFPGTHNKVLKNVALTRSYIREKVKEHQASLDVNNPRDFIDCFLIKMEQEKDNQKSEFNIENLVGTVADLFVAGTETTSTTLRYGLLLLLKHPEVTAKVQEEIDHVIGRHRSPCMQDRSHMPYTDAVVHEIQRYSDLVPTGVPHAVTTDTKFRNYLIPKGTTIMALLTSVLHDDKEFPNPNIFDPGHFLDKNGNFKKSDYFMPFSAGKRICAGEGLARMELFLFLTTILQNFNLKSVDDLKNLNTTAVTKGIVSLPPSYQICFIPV

[20] = Metabolic stability in CD-1 mouse liver microsomes at 0.2 uM up to 45 mins in presence of NADPH by LC-MS/MS analysis; format: ADME, microsome; conditions: 0.75 h

COc1ncc(-c2cc(OC[C@@H]3CCCN(C(=O)C4CCOCC4)C3)c3cnn(C)c3n2)cc1NS(C)(=O)=O
Ratio IC50 (Homo sapiens [1]): 39 | IC50 [2]: 3.9 nM | Ratio IC50 (Homo sapiens [3]): 1300 | Ratio IC50 (Homo sapiens [4]): 490

COc1ncc(-c2cc(OC[C@@H]3CCCN(CC4(C)COC4)C3)c3cnn(C)c3n2)cc1NS(C)(=O)=O
Ratio IC50 (Homo sapiens [1]): 570 | CLint scaled at 0.2 µM [5]: 910 mL/min/kg | IC50 [2]: 1.8 nM

COc1ncc(-c2cc(O[C@H]3CC[C@H](NC(=O)C4CCOCC4)CC3)c3cnn(C)c3n2)cc1NS(C)(=O)=O
IC50 [2]: 150 nM

COc1ncc(-c2cc(OC[C@@H]3CCCN(C(=O)c4cccnn4)C3)c3cnn(C)c3n2)cc1NS(C)(=O)=O
Ratio IC50 (Homo sapiens [1]): 35 | IC50 [2]: 7.3 nM

COc1ncc(-c2cc(OC[C@@H]3CCCN(Cc4c(C)nn(C)c4C)C3)c3cnn(C)c3n2)cc1NS(C)(=O)=O
Ratio IC50 (Homo sapiens [1]): 780 | CLint scaled at 0.2 µM [5]: > 1000 mL/min/kg | IC50 [2]: 1.4 nM

COc1ncc(-c2cc(OC[C@@H]3CCCN(Cc4cn(C)nc4C)C3)c3cnn(C)c3n2)cc1NS(C)(=O)=O
Ratio IC50 (Homo sapiens [1]): 730 | CLint scaled at 0.2 µM [5]: > 1000 mL/min/kg | IC50 [2]: 3.2 nM

COc1ncc(-c2cc(O[C@@H]3CCN(Cc4c(C)nn(C)c4C)C3)c3cnn(C)c3n2)cc1NS(C)(=O)=O
CLint scaled at 0.2 µM [5]: 620 mL/min/kg | inhibition in vivo at 2 mg/kg (Mus musculus [6]): 37%

COc1ncc(-c2cc(OC[C@H]3CCCN(C(=O)C4CCOCC4)C3)c3cnn(C)c3n2)cc1NS(C)(=O)=O
Ratio IC50 (Homo sapiens [1]): 6.6 | IC50 [2]: 30 nM

COc1ncc(-c2cc(OC[C@@H]3CCCN(CCC4CCOCC4)C3)c3cnn(C)c3n2)cc1NS(C)(=O)=O
Ratio IC50 (Homo sapiens [1]): 430 | CLint scaled at 0.2 µM [5]: 88 mL/min/kg | IC50 [2]: 1.3 nM | AUC(0-t) [7]: 1420 ng·h/mL | fraction unbound at 6 h, 2 µM [8]: 0.23 | inhibition (Mus musculus [9]): Dose-dependent effect | inhibition (INH) (Cytochrome P450 2C9): Not Active | bioavailability [10]: 73% | Ratio IC50 (Homo sapiens [3]): 660 | inhibition (INH) (Cytochrome P450 2D6): Not Active | Vd [11]: 5.64 L/kg | clearance [12]: 25.5 mL/min/kg | inhibition in vivo at 2 mg/kg (Mus musculus [6]): 83% | inhibition in vivo at 0.5 mg/kg (Mus musculus [13]): 56% | Cmax [14]: 230 ng/mL | Papp at 2 h, 50 µM [15]: 22 ×10⁻⁶ cm/s | inhibition in vivo at 1 mg/kg (Mus musculus [16]): 68% | half-life [17]: 2.63 h | inhibition (INH) (Cytochrome P450 3A4): Not Active | solubility at 20 h, 130 µM [18]: ≥ 100 µM | inhibition (INH) (Cytochrome P450 2C19): Not Active | inhibition (INH) (Cytochrome P450 1A2): Not Active | Tmax [19]: 0.5 h | inhibition (INH) (Cytochrome P450 2C8): Not Active | Ratio IC50 (Homo sapiens [4]): 3600

COc1ncc(-c2cc(OC3CN(C(=O)C4CCOCC4)C3)c3cnn(C)c3n2)cc1NS(C)(=O)=O
Ratio IC50 (Homo sapiens [1]): 3.7 | IC50 [2]: 63 nM

COc1ncc(-c2cc(OC[C@@H]3CCCN(C(=O)C4CCN(C(C)=O)CC4)C3)c3cnn(C)c3n2)cc1NS(C)(=O)=O
Ratio IC50 (Homo sapiens [1]): 260 | IC50 [2]: 4.6 nM

COc1ncc(-c2cc(O[C@@H]3CCN(C(=O)C4CCOCC4)C3)c3cnn(C)c3n2)cc1NS(C)(=O)=O
inhibition in vivo at 2 mg/kg (Mus musculus [6]): 32% | inhibition in vivo at 1 mg/kg (Mus musculus [16]): -2% | Stability [20]: Stable

COc1ncc(-c2cc(OC[C@@H]3CCCN(CC4CCOCC4)C3)c3cnn(C)c3n2)cc1NS(C)(=O)=O
Ratio IC50 (Homo sapiens [1]): 87 | CLint scaled at 0.2 µM [5]: 340 mL/min/kg | IC50 [2]: 0.79 nM | Ratio IC50 (Homo sapiens [3]): 890 | Ratio IC50 (Homo sapiens [4]): 3200

COc1ncc(-c2cc(OC[C@@H]3CCCN(C(=O)C4CCN(CCC(F)(F)F)CC4)C3)c3cnn(C)c3n2)cc1NS(C)(=O)=O
Ratio IC50 (Homo sapiens [1]): 38 | IC50 [2]: 41 nM

COc1ncc(-c2cc(OC[C@@H]3CCCN(C(=O)CC4CCOC4)C3)c3cnn(C)c3n2)cc1NS(C)(=O)=O (stereo partly specified)
Ratio IC50 (Homo sapiens [1]): 210 | IC50 [2]: 4.8 nM
